Data from PubChem BioAssay AID1963431 (Molecular Pharmacology Branch, DTP, NCI, 2024).

Tested on: Rh18 complex spheroid viability, percent test/control
Test: Anticancer human tumor Rh18 cell line growth inhibition [Asc];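 also: spheroids exposed to compound for 7 days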;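 as to viability, T/C: 100% = DMSO vehicle control wells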
Conditions: for IC50: curve of first compound; for viability, T/C: stronger effect = lower value
Description: Multicellular complex tumor spheroid response to apoptosis pathway targeting inhibitors Alrizomadlin, Pelcitoclax, and Dasminapant in combination with a variety of drugs and investigational agents in selected tumor cell lines
The MDM2 inhibitor alrizomadlin, the Bcl-2/Bcl-xL inhibitor pelcitoclax, and the IAPs inhibitor dasminapant were evaluated both individually and in combination with standard of care and investigational anticancer small molecules within a complex spheroid model of solid tumors. . Complex spheroids include a stromal component modeled by human endothelial cells (HUVEC) and fibroblasts modeled by human mesenchymal stem cells (MSCs). The concentration ranges selected for each drug and investigational agent were based upon clinically achievable concentrations if the clinical Cmax of the agent was known.
Compounds. The drugs and investigational agents: alrizomadlin (APG-115; NSC831270), pelcitoclax (APG-1252; NSC835773), dasminapant (APG-1387;NSC834197), TAK-243 (NSC785004), copanlisib (NSC809693), olaparib (NSC753686), talazoparib (NSC767125), cobimetinib (NSC 768068), eltanexor (KPT-8602, NSC 794443), abemaciclib (NSC 768073), sotorasib (NSC818433), adagrasib (NSC 831453), MRTX-1133 (NSC 836407), Iadademestat (ORY1001, NSC 806812), and RMC-4630 (NSC839698), were obtained from the NCI Developmental Therapeutics Program Chemical Repository. The FDA-approved anticancer drug set is available from the Developmental Therapeutics Program at https://dtp.cancer.gov/organization/dscb/obtaining/available plates.htm. […] The stock solutions were prepared in dimethyl sulfoxide (DMSO, Sigma-Aldrich, St. Louis, MO, cat. D2650) at 800-fold the tested concentration and stored at -70 degrees C prior to their use. All drugs and investigational agents were tested over a range starting from a high concentration at or near the clinical Cmax and decreasing in half-log increments. If the clinical Cmax for an agent had not been determined, the highest concentration tested was 10 microM.
The patient-derived cancer (PDC) cell lines include five colon adenocarcinomas: 186277-243-T-J2-PDC, 616215-338-R-J1-PDC, 439559-082-T-J2-PDC, 463943-066-T-J2-PDC, and 519858-162-T-J1-PDC; three pancreatic carcinomas: 323965-272-R-J2-PDC, 521955-158-R6-J3-PDC, and 521955-158-R2-J5-PDC; two uterine sarcomas: 327498-152-R-J2-PDC and 993429-296-R-J1-PDC; two rhabdomyosarcomas: 755483-174-R-J1-PDC and 772245-204-R-J1-PDC; two soft tissue sarcomas: 126254-015-R-J1-PDC and 494315-158-R-J1-PDC; two malignant fibrous histiocytomas: 317291-083-R-J1-PDC and 596521-263-R-J1-PDC; two breast carcinomas: 171881-019-R-J1-PDC and 885512-296-R-J2-PDC; and one ovarian carcinoma: 6556581-035-R-J-PDC were obtained from the NCI PDMR, (https://pdmr.cancer.gov). The established cell lines HSSY-2 synovial sarcoma (RRID:CVCL 8719), SYO-1 synovial sarcoma (RRID:CVCL_7146), MPNST malignant peripheral neural sheath tumor were obtained from the Sloan Kettering Institute. The following established cell lines were purchased from the American Type Culture Collection (ATCC, Manassas, VA), Sor the received from the NCI repository:, PANC-1 pancreatic carcinoma (CRL-1469, RRID:CVCL_0480), OVCAR-5 ovarian carcinoma (RRID:CVCL_1628), OVCAR-8 ovarian carcinoma (RRID:CVCL_1629), , MCF-7 breast carcinoma (CRL-12584, RRID:CVCL_0031), MDA-MB-231 breast carcinoma (CRL-12532, RRID:CVCL_0062), NCI-H1876 small cell lung carcinoma (CRL-5902, RRID:CVCL_1503), NCI-H510A small cell lung carcinoma (HTB-184, RRID:CVCL_1565), NCI-H1417 (CRL-5869, RRID:CVCL_1469), and NCI-H196 small cell lung carcinoma (CRL-5823, RRID:CVCL_1509). Dr. Peter Houghton (Greehey Children's Cancer Research Institute, University of Texas Health Science Center, San Antonio, TX) provided Rh-18 rhabdomyosarcoma (RRID:CVCL_1659). Pooled donor human umbilical vein endothelial cells (HUVEC, Lonza, cat. CC-2519) and human mesenchymal stem cells (hMSC, Lonza, cat. PT-2501) were purchased from Lonza (Walkersville, MD).
Cell Culture. […]

Cn1ncnc1[C@H]1c2n[nH]c(=O)c3cc(F)cc(c23)N[C@@H]1c1ccc(F)cc1 + CCN1C(C(=O)NC23CCC(C(=O)O)(CC2)CC3)C(c2cccc(Cl)c2F)C2(C(=O)Nc3cc(Cl)ccc32)C12CCCCC2
IC50 (second compound 0.03 µM): < 0.316 nM
IC50 (second compound 0.0949 µM): < 0.316 nM
IC50 (second compound 0.3 µM): < 0.316 nM
IC50 (second compound 0.949 µM): < 0.316 nM
IC50 (second compound 3 µM): < 0.316 nM
viability, T/C (second compound 0.03 µM, first compound 0.000316 µM): 39%
viability, T/C (second compound 0.03 µM, first compound 0.001 µM): 36.2%
viability, T/C (second compound 0.03 µM, first compound 0.00316 µM): 45.6%
viability, T/C (second compound 0.03 µM, first compound 0.01 µM): 36.1%
viability, T/C (second compound 0.03 µM, first compound 0.0316 µM): 39.4%
viability, T/C (second compound 0.03 µM, first compound 0.1 µM): 49%
viability, T/C (second compound 0.0949 µM, first compound 0.000316 µM): 22.7%
viability, T/C (second compound 0.0949 µM, first compound 0.001 µM): 27.1%
viability, T/C (second compound 0.0949 µM, first compound 0.00316 µM): 25.6%
viability, T/C (second compound 0.0949 µM, first compound 0.01 µM): 26.6%
viability, T/C (second compound 0.0949 µM, first compound 0.0316 µM): 25.5%
viability, T/C (second compound 0.0949 µM, first compound 0.1 µM): 25.3%
viability, T/C (second compound 0.3 µM, first compound 0.000316 µM): 13.3%
viability, T/C (second compound 0.3 µM, first compound 0.001 µM): 15.4%
viability, T/C (second compound 0.3 µM, first compound 0.00316 µM): 13%
viability, T/C (second compound 0.3 µM, first compound 0.01 µM): 13.1%
viability, T/C (second compound 0.3 µM, first compound 0.0316 µM): 13.3%
viability, T/C (second compound 0.3 µM, first compound 0.1 µM): 13.3%
viability, T/C (second compound 0.949 µM, first compound 0.000316 µM): 11.1%
viability, T/C (second compound 0.949 µM, first compound 0.001 µM): 11.2%
viability, T/C (second compound 0.949 µM, first compound 0.00316 µM): 11.7%
viability, T/C (second compound 0.949 µM, first compound 0.01 µM): 10.4%
viability, T/C (second compound 0.949 µM, first compound 0.0316 µM): 9.91%
viability, T/C (second compound 0.949 µM, first compound 0.1 µM): 9.54%
viability, T/C (second compound 3 µM, first compound 0.000316 µM): 9.71%
viability, T/C (second compound 3 µM, first compound 0.001 µM): 9.49%
viability, T/C (second compound 3 µM, first compound 0.00316 µM): 9.33%
viability, T/C (second compound 3 µM, first compound 0.01 µM): 7.51%
viability, T/C (second compound 3 µM, first compound 0.0316 µM): 8.46%
viability, T/C (second compound 3 µM, first compound 0.1 µM): 7.12%

CCN1CCN(Cc2ccc(Nc3ncc(F)c(-c4cc(F)c5nc(C)n(C(C)C)c5c4)n3)nc2)CC1 + CNC(C)C(=O)NC1CN(S(=O)(=O)c2cccc(S(=O)(=O)N3CCC4CCC(C(=O)NC(c5ccccc5)c5ccccc5)N4C(=O)C(NC(=O)C(C)NC)C3)c2)CCC2CCC(C(=O)NC(c3ccccc3)c3ccccc3)N2C1=O
IC50 (second compound 0.01 µM): < 3.16 nM
IC50 (second compound 0.0316 µM): < 3.16 nM
IC50 (second compound 0.1 µM): < 3.16 nM
IC50 (second compound 0.316 µM): < 3.16 nM
IC50 (second compound 1 µM): < 3.16 nM
viability, T/C (second compound 0.01 µM, first compound 0.00316 µM): 57%
viability, T/C (second compound 0.01 µM, first compound 0.01 µM): 50%
viability, T/C (second compound 0.01 µM, first compound 0.0316 µM): 39.2%
viability, T/C (second compound 0.01 µM, first compound 0.1 µM): 40.6%
viability, T/C (second compound 0.01 µM, first compound 0.316 µM): 58.6%
viability, T/C (second compound 0.01 µM, first compound 1 µM): 86.7%
viability, T/C (second compound 0.0316 µM, first compound 0.00316 µM): 47.7%
viability, T/C (second compound 0.0316 µM, first compound 0.01 µM): 46.1%
viability, T/C (second compound 0.0316 µM, first compound 0.0316 µM): 39.6%
viability, T/C (second compound 0.0316 µM, first compound 0.1 µM): 38%
viability, T/C (second compound 0.0316 µM, first compound 0.316 µM): 48.7%
viability, T/C (second compound 0.0316 µM, first compound 1 µM): 90.9%
viability, T/C (second compound 0.1 µM, first compound 0.00316 µM): 47.1%
viability, T/C (second compound 0.1 µM, first compound 0.01 µM): 47.5%
viability, T/C (second compound 0.1 µM, first compound 0.0316 µM): 35.2%
viability, T/C (second compound 0.1 µM, first compound 0.1 µM): 40.1%
viability, T/C (second compound 0.1 µM, first compound 0.316 µM): 48.3%
viability, T/C (second compound 0.1 µM, first compound 1 µM): 53.8%
viability, T/C (second compound 0.316 µM, first compound 0.00316 µM): 59.2%
viability, T/C (second compound 0.316 µM, first compound 0.01 µM): 47.2%
viability, T/C (second compound 0.316 µM, first compound 0.0316 µM): 38.3%
viability, T/C (second compound 0.316 µM, first compound 0.1 µM): 35.7%
viability, T/C (second compound 0.316 µM, first compound 0.316 µM): 44.4%
viability, T/C (second compound 0.316 µM, first compound 1 µM): 67.4%
viability, T/C (second compound 1 µM, first compound 0.00316 µM): 34.7%
viability, T/C (second compound 1 µM, first compound 0.01 µM): 30%
viability, T/C (second compound 1 µM, first compound 0.0316 µM): 30.6%
viability, T/C (second compound 1 µM, first compound 0.1 µM): 29.5%
viability, T/C (second compound 1 µM, first compound 0.316 µM): 38.7%
viability, T/C (second compound 1 µM, first compound 1 µM): 60.7%
